Results on 38 compounds are retold here after patent US20070178575A1, “Identification Of A Nitrilase From B. Japonicum By Rational Genome Mining And Methods Of Use” (priority 2005, published 2007).

Experiment [1] deals with T1, nitrilase bll6402 (Bradyrhizobium diazoefficiens, UniProt Q89GE3). The experiment is described as follows: Substrate specificity: specific/relative activity by ammonia release. The format is biochemical, Bradyrhizobium japonicum USDA110. The note with it: for Relative Activity: 25 mM substrate, pH 7.2, 30° C., phenylacetonitrile defined as 100. The method, then:
The standard assays were carried out by mixing the substrate nitrile and purified nitrilase enzyme in potassium phosphate buffer (100 mM, pH 7.2). The reaction mixture was incubated at 30° C. Samples (100 μL) of the reaction mixture were withdrawn at several time intervals and quenched with 10 μl of 1 M HCl. The amount of ammonia produced in the reaction was measured using Bertholet assay as follows: A 100 μL aliquot of each of the following assay reagents was added subsequently: 0.02 M NaOCl, 0.33 M sodium phenoxide and 0.01% sodium nitroprusside solution. The mixture was then heated at 95° C. for 2 min, cooled rapidly in ice-water bath, and 200 μl of the mixture was then placed in a 96-well plate to measure the absorbance at 640 nm using SpectraMax M2 microplate reader (Molecular Devices). The amount of ammonia released during the hydrolysis was calculated by comparison with the standard curve obtained with standard ammonium chloride solution, and the activity was defined as the number of μmol of ammonia produced in 1 minute by 1 mg of enzyme (μmol·min^−1·mg^−1). To determine the kinetic parameters of the purified protein for mandelonitrile, activity assays were performed with different substrate concentrations, and Vmax and Km were calculated by best fitting the curve to experimental data according to Michaelis equation.
The specific activities of nitrilase bll6402 toward 24 different nitrites with structural diversity were measured by the quantification of the amount of ammonia released during the hydrolysis. A reaction mixture containing 20 or 40 μg of purified bll6402 enzyme, 25 mM substrate in potassium phosphate buffer (1 ml, 100 mM, pH 7.2) was incubated at 30° C. The conversion was determined by measuring the amount of ammonia produced in the reaction using Bertholet assay as described above.

A short description of experiment [2]: Effects of temperature, pH and organic solvents on nitrilase activity. The note with it: 30% (v/v) of hexane, tert-butyl methyl ether or toluene; 30° C., pH 7.1, 4 hours. The format is biochemical. The method, then: For the determination of temperature effect, a mixture of nitrilase (0.5 mg) with benzyl cyanide (50 mM) in 1.0 ml of potassium phosphate buffer (100 mM, pH 7.1) was incubated at 25° C., 30° C., 37° C. and 45° C., respectively. Aliquots (100 μl) were taken after 1, 2, 4, and 16 hrs intervals, and acidified with 10 μl of 1M HC1. The formed phenylacetic acid was extracted into 200 μl of tert-butyl methyl ether, dried over anhydrous sodium sulfate, and quantified by GC analysis after converting to methyl ester with diazomethane.
The pH effect was studied using the following buffer: sodium citrate buffer (pH 4.91 and 5.44), potassium phosphate buffer (pH 6.07, 6.52, 7.10, 7.58, 7.98 and 8.49) and sodium bicarbonate buffer (pH 8.98). A mixture of nitrilase (0.5 mg) with benzyl cyanide (50 mM) in 1.0 ml of the respective buffer (100 mM) was incubated at 30° C. […] The formed phenylacetic acid was extracted into 200 μl of tert-butyl methyl ether, dried over anhydrous sodium sulfate, and quantified by GC analysis after converting to methyl ester with diazomethane.
The organic solvent effects were evaluated with dimethyl sulfoxide (DMSO), tert-butyl methyl ether, hexane, toluene and butyl acetate. […] The formed phenylacetic acid was extracted into 1 ml of tert-butyl methyl ether, dried over anhydrous sodium sulfate, and quantified by GC analysis after converting to methyl ester with diazomethane.

Experiment [3] addresses T1, nitrilase bll6402. In words: Enantioselective hydrolysis of β-hydroxy nitriles. The format is biochemical, Bradyrhizobium japonicum USDA110. The method, then:
β-Hydroxy nitrites were prepared by the cyanization of α-bromoketones with sodium cyanide followed by NaBH4 reduction. The obtained β-hydroxy nitrites were treated with purified nitrilase bll6402 in potassium phosphate buffer (100 mM, pH 7.0), and the reaction mixture was incubated overnight at 30° C. The mixture was then saturated with NaCl and extracted with ethyl acetate. The extract was dried over sodium sulfate, and evaporation of the solvent under reduced pressure afforded the crude products. The β-hydroxy carboxylic acids were separated from unreacted β-hydroxy nitrites by preparative thin-layer chromatography.
The ee values of both the product acids and the recovered nitrites were measured by chiral HPLC analysis, and their absolute configurations were determined by comparing the sign of optical rotation with the literature data. The enantiomeric ratios (E) were calculated using the equations proposed by Sih et al. (J. Am. Chem. Soc. 1982, 104, 7294-7299). The results are presented in Table 6 together with the data for the hydrolysis of mandelonitrile under the same conditions.

Experiment [4] concerns the target T1, nitrilase bll6402. In words: Selective hydrolysis of dinitriles to cyanocarboxylic acids. In kind it is biochemical, Bradyrhizobium japonicum USDA110. The following applies: selective hydrolysis of dinitrile. The text has this: Because of the synthetic importance of selective hydrolysis of dinitriles to […], nitrilase bll6402 was studied toward the hydrolysis of a series of dinitriles (e.g., scheme 6). [drawing 6]
The selectivity was not dependent on the chain length. This was different from the results obtained with nitrilases from Arabidopsis thaliana, acidovorax facilis 72W and cyanobacterium Synechocystis sp. strain PCC 6803, in which di-acids were obtained as the chain length increased.

Experiment [5] concerns the target T1, nitrilase bll6402. In words: Hydrolysis of aromatic α-hydroxy nitriles, conversion by HPLC. In kind it is biochemical, Bradyrhizobium japonicum USDA110. The note with it: 25 mM nitrile, 0.16 mg nitrilase in 1 mL, pH 7.2, overnight at 30° C. The method, then: To further characterize the efficiency of nitrilase b116402 to catalyze the hydrolysis of mandelonitrile derivatives to the corresponding carboxylic acids, the hydrolysis of several aromatic α-hydroxy nitrites were carried out and the product carboxylic acids were characterized by HPLC analysis. An example procedure was as follows: aromatic α-hydroxynitriles (25 mM) were treated with 0.16 mg nitrilase bll6402 in 1 mL of potassium phosphate buffer (100 mM, pH 7.2). The reaction mixture was incubated overnight at 30° C. A sample was withdrawn and analyzed by HPLC (column: Agilent C8, eluent: MeOH:H2O=20:80, flow rate: 1 mL/min, detector: 254 nm) and the products were identified by comparison with the authentic standards.

The target in experiment [6] is T1, nitrilase bll6402. In words: Regioselective hydrolysis of 1-cyanocycloalkaneacetonitriles. The format is biochemical, Bradyrhizobium japonicum USDA110. The note with it: 200 mg dinitrile, 10 mg nitrilase, pH 7.2, 30° C. The method, then:
The general procedure was followed: 1-Cyanocycloalkaneacetonitiles (200 mg) was treated with the nitrilase (10 mg) in potassium phosphate buffer (50 ml, 100 mM, pH=7.2). The reaction mixture was incubated at 30° C. and monitored by ^13C NMR. When dinitrile was consumed, the mixture was acidified with 1 N HCl solution to pH˜5, saturated with NaCl and extracted with ethyl acetate. The organic extract was dried over anhydrous sodium sulfate. Removal of solvent provided the desired product, which was further purified by preparative TLC using ethyl acetate-hexane (35/65, v/v) as eluting solvent.

The subject of experiment [7] is arylacetonitrilases from Alcaligenes faecalis ATCC8750 and JM3. The following applies: known arylacetonitrilases; cited from earlier work.
For experiment [8], the target named is T1, nitrilase bll6402. In kind it is biochemical, Bradyrhizobium japonicum USDA110. The following applies: pH 7.2.
Where [9] appears, read: pH 7.0, overnight at 30° C., isolated yield.

T1 sequence (Q89GE3 whole entry, looked up): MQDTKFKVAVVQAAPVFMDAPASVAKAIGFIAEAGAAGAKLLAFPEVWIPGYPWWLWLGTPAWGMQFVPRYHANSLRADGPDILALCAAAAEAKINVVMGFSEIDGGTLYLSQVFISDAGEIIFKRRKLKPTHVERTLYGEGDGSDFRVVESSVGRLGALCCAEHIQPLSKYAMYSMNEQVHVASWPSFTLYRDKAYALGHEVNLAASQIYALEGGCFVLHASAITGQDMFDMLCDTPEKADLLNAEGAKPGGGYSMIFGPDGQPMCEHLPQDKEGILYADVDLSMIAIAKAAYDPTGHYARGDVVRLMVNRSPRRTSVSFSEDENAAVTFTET

With `N#CCCN` [3-Aminopropionitrile], the “Relative Activity” value on nitrilase bll6402 [1] worked out at 1. “nitrilase bll6402: nitrilase (mandelonitrile hydrolase) from Bradyrhizobium japonicum USDA110, amino acid SEQ ID NO: 2, expressed in E. coli”: the “retained activity in biphasic systems” value in experiment [2] is “more than 70%”. For `CC(CC#N)c1ccccc1` (stereo not drawn) [3-phenylbutyronitrile], on nitrilase bll6402 [3] (same conditions as β-hydroxy nitriles), the “hydrolysis by nitrilase bll6402 (result in words)” value was “not hydrolyzed”. On to `N#CCCCC#N` [Glutaronitrile], for which the “Yield (%) of cyanocarboxylic acid” value at nitrilase bll6402 [4] is 93%. On to `CCCCCC#N` [Hexanenitrile], for which the “Relative Activity” value on nitrilase bll6402 [1] stood at 16. For `N#CCCCCCC#N` [1,5-Dicyanopentane], at nitrilase bll6402 [4], the “Yield (%) of cyanocarboxylic acid” value is 90%. Consider `N#CCCC#N` [Succinonitrile], for which the “Yield (%) of cyanocarboxylic acid” value on nitrilase bll6402 [4] is given as 97%. In the case of `C=CCC#N` [Allyl cyanide], the “Relative Activity” value at nitrilase bll6402 [1] was found to be 2. Same read-out and setting: to `CCCCC#N` [Valeronitrile] belongs 6. On the same count and under the same terms, to `CC(C#N)CCC#N` (stereo not drawn) [2-Methylglutaronitrile] belongs 3; to `CC(=O)c1ccc(C#N)cc1` [4-Acetylbenzonitrile], 2. For `N#CCc1ccccc1` [Phenylacetonitrile], the “Relative Activity” value on nitrilase bll6402 [1] worked out at 100. On the same count and under the same terms, to `CCCCCCC#N` [Heptanenitrile] belongs 22. Regarding `N#CC(O)c1ccc(O)cc1` (stereo not drawn) [α-Hydroxy-α-(p-hydroxyphenyl)acetonitrile], at nitrilase bll6402 [5], the “Conversion(%)” value is given as 88%. For the compound `N#CCC1(C#N)CCCC1` [1-cyanocyclopentaneacetonitrile], at nitrilase bll6402 [6], the “isolated yield of corresponding cyanocarboxylic acid” value (“isolated yield” for short) is 92%. As to `CN(C)C(C#N)c1ccccc1` (stereo not drawn) [α-N,N-Dimethylaminophenylacetonitrile], the “Relative Activity” value on nitrilase bll6402 [1] was determined as 1. Same read-out and setting: for `N#CCc1c[nH]c2ccccc12` [3-Indolylacetonitrile] the value was 2. Turning to `N#CCCCCC#N` [1,4-Dicyanobutane], the “Relative Activity” value at nitrilase bll6402 [1] was found to be 5. Further, the “Yield (%) of cyanocarboxylic acid” value at nitrilase bll6402 [4] is 97%. In the case of `N#CCCCCl` [4-Chlorobutyronitrile], the “Relative Activity” value at nitrilase bll6402 [1] is recorded as 6. For the compound `N#CC(O)c1ccccc1` (stereo not drawn) [Mandelonitrile], at nitrilase bll6402 [3] (pH 7.0, overnight at 30° C., chiral HPLC), the “product acid (S)-2 ee (%)” value was 0%. Further, at nitrilase bll6402 [3] (setting [9]), the “product acid (S)-2 yield (%)” value turned out to be 98% and the “recovered nitrile (R)-1 yield (%)” value is on record as 0%. The “Relative Activity” value at nitrilase bll6402 [1] turned out to be 460. The “activity relative to that of phenylacetonitrile” value on nitrilase bll6402 [1] (hydrolysis by nitrilase bll6402) was determined as 4.6 times. Moreover, the “Conversion(%)” value at nitrilase bll6402 [5] is 98%. In addition, the “activity as % of that for phenylacetonitrile” value in experiment [7] is 12-15%.

On to `C[Si](C)(C)OC(C#N)c1ccccc1` (stereo not drawn) [α-Trimethylsilyloxyphenylacetonitrile], for which the “Relative Activity” value on nitrilase bll6402 [1] is 165. In addition, on nitrilase bll6402 [5], the “Conversion(%)” value came out at 99%.

Consider `N#C/C=C/C#N` [Fumaronitrile], for which the “Yield (%) of cyanocarboxylic acid” value at nitrilase bll6402 [4] is reported as 84%. Take `CC(C#N)c1ccccc1` (stereo not drawn) [α-phenylpropionitrile]: on nitrilase bll6402 [1], the “Relative Activity” value was determined as 10. Consider `N#CCCCCCCCCC#N` [Sebeconitrile], for which, on nitrilase bll6402 [4], the “Yield (%) of cyanocarboxylic acid” value stood at 88%. Turning to `N#CC(N)c1ccccc1` (stereo not drawn) [2-Phenylglycinonitrile], the “Relative Activity” value on nitrilase bll6402 [1] worked out at 3. In the case of `CCCC#N` [n-Butyronitrile], the “Yield (%) of product carboxylic acid” value at nitrilase bll6402 [8] is listed as 61%. For the same compound, the “Relative Activity” value on nitrilase bll6402 [1] turned out to be 3. `CC=CC#N` [Crotononitrile]: at nitrilase bll6402 [1], the “Relative Activity” value is reported as 3. Still for that read-out and setting: to `N#Cc1ccccc1` [Benzonitrile] belongs 1. Turning to `N#CCCO` [3-Hydroxypropionitrile], the “Relative Activity” value on nitrilase bll6402 [1] is on record as 1. Regarding `N#CC(O)c1cccc(O)c1` (stereo not drawn) [α-Hydroxy-α-(m-hydroxyphenyl)acetonitrile], the “Conversion(%)” value at nitrilase bll6402 [5] stood at 94%. As for `CCC(C#N)c1ccccc1` (stereo not drawn) [α-Phenylbutyronitrile], the “Relative Activity” value on nitrilase bll6402 [1] was 8. Turning to `N#CCCc1ccccc1` [Hydrocinnamonitrile], the “Relative Activity” value at nitrilase bll6402 [1] turned out to be 13. Still for that read-out and setting: to `N#CCCCc1ccccc1` [4-Phenylbutyronitrile] belongs 4.

With `CSCC#N` [Methylthioacetonitrile], the “Yield (%) of product carboxylic acid” value at nitrilase bll6402 [8] is 96%. Besides, the “Relative Activity” value at nitrilase bll6402 [1] came to 1. For the compound `N#CCC1(C#N)CCCCC1` [1-cyancyclohexaneacetonitrile], at nitrilase bll6402 [6], the “isolated yield” value is given as 88%. Regarding `CC(C)(C#N)C#N` [α,α-Dimethylmalononitrile], on nitrilase bll6402 [4], the “Yield (%) of cyanocarboxylic acid” value turned out to be 93%. `N#CCC1(C#N)CCCCCC1` [1-cyanocycloheptaneacetonitrile]: the “isolated yield” value on nitrilase bll6402 [6] worked out at 54%. On to `N#CCCCCCCC#N` [1,6-Dicyanohexane], for which, at nitrilase bll6402 [4], the “Yield (%) of cyanocarboxylic acid” value amounted to 88%.
